Common to all, as to format: in vivo, mice
Assay [1] relates to 4T1 tumors. Put plainly: Ultrasound shear wave elastography of tissue stiffness, bosentan dose response. Particulars: 1 mg/kg daily bosentan i.p.; 4T1 breast tumors. Here is the method:
(§1) Mice bearing syngeneic, orthotopic triple negative breast cancer (TNBC) were treated with a range of sub-therapeutic doses of bosentan, from 0.2 mg/kg to 10 mg/kg of body weight. Orthotopic models for murine mammary tumors were generated by implantation of 5×10^4 4T1 or E0771 cancer cells in 40 μl of serum-free medium into the third mammary fat pad of 6-8-week-old BALB/c and C57BL/6 female mice, respectively. 4T1 (ATCC® CRL-2539TH) and E0771 (94A001, CH3 BioSystems) mouse breast adenocarcinoma cell lines were purchased form ATCC and CH3 BioSystems, respectively. The cells were maintained at 37° C./5% CO2 in Roswell Park Memorial Institute medium (RPMI-1640, LM-R1637, Biosera) supplemented with 10% fetal bovine serum (FBS, FB-1001H, biosera) and 1% antibiotics (A5955, Sigma). Bosentan (bosentan Hydrate (S3051, Selleckchem) was dissolved in ddH2O containing 2% DMSO (GK2245, Glentham Life Science), 30% PEG300 (S6704, Selleckchem) and 2% Tween 80 (S6702, Selleckchem)) 1 mg/kg, 5 mg/kg, 10 mg/kg or equal volume of diluent (control group) was administered by intraperitoneal injection (i.p.) once a day for 10 days, starting from once the tumor volumes reached an average size of 100 mm^3. Tumors were excised when they reached an average size of 500 mm^3. Tissue stiffness was then measured non-invasively and longitudinally using ultrasound elastography. […]

The test system of assay [2] is E0771 tumors. The description is as above. Particulars: 1 mg/kg daily bosentan i.p.; E0771 breast tumors. Here is the method: as §1
Assay [3] relates to E0771 tumors. Put plainly: Atomic force microscopy (AFM) Young's modulus and stiffness fingerprint of excised tumors.
The subject of assay [4] is E0771 tumors. Put plainly: Extracellular matrix staining (Picro Sirius red collagen, HABP immunofluorescence). As for the experimental part:
as §1

Assay [5] concerns 4T1 or E0771 tumors. Kind of assay: Tumor growth under bosentan monotherapy (dose response studies). The following applies: bosentan monotherapy at any dose. As for the experimental part: as §1

On to `COc1ccccc1Oc1c(NS(=O)(=O)c2ccc(C(C)(C)C)cc2)nc(-c2ncccn2)nc1OCCO` [bosentan, 4-tert-butyl-N-[6-(2-hydroxy-ethoxy)-5-(2-methoxy-phenoxy)-2-(pyrimidin-2-yl)pyrimidin-4-yl] benzenesulfonamide], for which the “tissue stiffness (ultrasound elastography)” value in assay [1] and in assay [2] was “reduced tissue stiffness” each time. In addition, the “tissue stiffness, Young's modulus by atomic force microscopy” value in assay [3] (1 mg/kg daily bosentan, excised E0771 tumors) was “confirmed”. The “mechanical fingerprint of the tissue (AFM stiffness histogram)” value in assay [3] (tumors treated with 1 mg/kg) was “large contribution from cancer cells and little contribution from collagen”; in assay [3] (tumors treated with 10 mg/kg), “heterogenous collagen contribution”. Also, in assay [4], the “collagen levels (Picro Sirius red staining)” value is listed as “reduction of collagen levels”. Further, in assay [5], the tumor growth entry was “did not affect”.

The record behind these values is patent US20240024317A1, “CANCER TREATMENT USING BOSENTAN IN COMBINATION WITH A CHECKPOINT INHIBITOR” (Materia Therapeutics Inc., priority 2020, published 2024).
